This is an account of results in patent US12187706B2, “NLRP3 modulators” (INNATE TUMOR IMMUNITY, INC., priority 2019, dated 2025).

pEC50: −log10 of the molar value.

The target of the experiment is T1, NLRP3 (Homo sapiens, UniProt Q96P20).
T1 construct: host or cells: PMA-differentiated THP-1 cells
T1 sequence (Q96P20 whole entry): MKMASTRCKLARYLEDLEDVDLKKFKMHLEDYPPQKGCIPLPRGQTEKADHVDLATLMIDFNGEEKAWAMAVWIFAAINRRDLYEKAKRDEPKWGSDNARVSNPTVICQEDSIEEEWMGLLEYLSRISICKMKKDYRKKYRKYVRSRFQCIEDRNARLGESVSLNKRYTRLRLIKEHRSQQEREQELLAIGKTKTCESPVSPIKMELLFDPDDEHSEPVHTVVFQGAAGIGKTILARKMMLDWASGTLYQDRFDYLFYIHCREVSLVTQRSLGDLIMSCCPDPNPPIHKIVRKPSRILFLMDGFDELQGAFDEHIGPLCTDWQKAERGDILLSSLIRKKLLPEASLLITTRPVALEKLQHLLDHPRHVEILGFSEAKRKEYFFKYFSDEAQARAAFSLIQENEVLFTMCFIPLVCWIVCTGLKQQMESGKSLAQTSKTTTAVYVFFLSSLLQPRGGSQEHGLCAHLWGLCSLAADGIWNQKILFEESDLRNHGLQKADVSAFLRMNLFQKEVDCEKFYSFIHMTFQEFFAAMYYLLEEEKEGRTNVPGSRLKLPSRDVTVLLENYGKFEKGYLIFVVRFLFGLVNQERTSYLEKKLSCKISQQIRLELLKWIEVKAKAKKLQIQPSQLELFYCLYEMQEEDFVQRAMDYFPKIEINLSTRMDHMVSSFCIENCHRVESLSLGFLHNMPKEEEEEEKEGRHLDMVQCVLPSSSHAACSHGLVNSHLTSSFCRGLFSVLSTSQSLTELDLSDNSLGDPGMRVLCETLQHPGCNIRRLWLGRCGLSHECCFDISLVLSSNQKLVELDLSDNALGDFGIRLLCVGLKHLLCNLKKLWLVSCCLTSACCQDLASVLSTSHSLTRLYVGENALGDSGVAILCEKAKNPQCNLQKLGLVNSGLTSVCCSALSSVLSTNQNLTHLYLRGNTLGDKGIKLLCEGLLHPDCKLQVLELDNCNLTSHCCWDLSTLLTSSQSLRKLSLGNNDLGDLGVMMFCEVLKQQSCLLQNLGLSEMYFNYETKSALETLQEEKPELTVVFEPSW
Description: Measurement of IL-1β production in PMA-differentiated THP-1 cells (NLRP3 hIL1B). It is filed as cell-based. On the procedure:
Measurement of IL-1β Production in PMA-Differentiated THP-1 Cells
THP-1 cells were purchased from the American Type Culture Collection and sub-cultured according to instructions from the supplier. Prior to experiments, cells were cultured in RPMI 1640 containing 10% heat inactivated FBS, penicillin (100 units/ml) and streptomycin (100 μg/ml), and maintained in log phase prior to experimental setup. Prior to the experiment THP-1 were treated with PMA (Phorbol 12-myristate 13-acetate) (10 μg/ml) for 24 hours. The day of the experiment the media was removed and attaching cells were treated with trypsin for 2 minutes, cells were then collected, washed with PBS (phosphate buffer saline), spin down, resuspended in 2% heat inactivated FBS with RPMI at a concentration of 1×10^6 cells/ml, and 100 μl was plated in a 96 well plate. Compounds were dissolved in dimethyl sulfoxide (DMSO) and added to the culture medium to achieve desired concentration (e.g. 100, 30, 10, 3, 1, 0.3 or 0.1 μM). Cells were incubated with compounds for 4 hours. Cell free supernatant was collected and the production of IL-1β was evaluated by ELISA. A vehicle only control was run concurrently with each experiment. Final DMSO concentration was 1%.
Measurement of IL-1β Production in PMA-Differentiated THP-1 Cells (Alternative Procedure)
THP-1 cells were purchased from the American Type Culture Collection and sub-cultured according to instructions from the supplier. Prior to experiments, cells were cultured in RPMI 1640 containing 10% heat inactivated FBS, penicillin (100 units/ml), streptomycin (100 μg/ml), HEPES (10 mM) and sodium pyruvate (1 mM) and maintained in log phase prior to experimental setup. Prior to the experiment, THP-1 cells were treated with PMA (Phorbol 12-myristate 13-acetate) (20 μg/ml) overnight. The day of the experiment, the media was removed and attached cells were treated with trypsin for 2 minutes, cells were then collected, washed with PBS (phosphate buffer saline), pelleted by centrifugation and resuspended in 2% heat inactivated FBS with RPMI at a concentration of 50,000 cells/well in a 384 well plate. Cell free supernatant was collected and the production of IL-1β was evaluated by ELISA. Compounds were dissolved in dimethyl sulfoxide (DMSO) and added to the culture medium to achieve desired concentration (e.g. 100, 30, 10, 3, 1, 0.3 or 0.1 μM). Cells were incubated with compounds for 2 hours. A vehicle only control was run concurrently with each experiment. Final DMSO concentration was 1%.
Measurement of IL-1β Production—hTRF Protocol (Second Alternative Procedure)
Serial dilutions of compounds in DMSO were added to low volume 384 well plates at 100 nl/well using an ECHO 550 acoustic dispenser (Labcyte) to achieve final starting concentration of 10 μM in assay.
THP-1 cells in RPMI (Gibco, 11875) media with 10% FBS at a density of 1×10^6 cell/ml in a T175 flask were treated with a final concentration of phorbol 12-myristate 13-acetate (PMA) (Sigma, P1585) of 50 ng/ml overnight at 37° C. at 5% CO2 for differentiation. Cells were harvested the next day after rinsing well with dPBS using 0.5% trypsin. A cell solution was prepared of 1×10^6 cells/ml for 50,000 cells in 50 μl/well in RPMI media with 2% FBS. Cells were plated using a multichannel pipette onto the compound dilutions in Greiner, 384 well, black clear bottom tissue culture treated plates (781090). The plates were incubated in 37° C. incubator at 5% CO2 for 2 hours.
After the 2 hour incubation, the cell plates were spun in the centrifuge for 5 minutes at 1200 rpm. Using the Felix (CyBio), 8 μl of the supernatant was transferred to 384 well, low volume, white proxy plates. (Perkin Elmer, 6008230). A human IL1beta hTRF kit was used to analyze the supernatant (CISBIO, 62HIL1BPEG). The kit instructions were followed for preparing the IL1Beta standard curve and then the antibodies from the kit were diluted 1:40 rather than 1:20 as kit instructed.
In turn, `CC(C)(O)C(O)CNc1nc(N)nc2cc(-c3ccn[nH]3)ccc12` (racemic) [Example 8, rac-1-((2-amino-7-(1H-pyrazol-5-yl)quinazolin-4-yl)amino)-3-methylbutane-2,3-diol] had a pEC50 of 5.67.

`CC(O)(CO)CNc1nc(N)nc2cc(-c3ccn[nH]3)ccc12` (racemic) [Example 11, rac-3-((2-amino-7-(1H-pyrazol-5-yl)quinazolin-4-yl)amino)-2-methylpropane-1,2-diol] showed a negative logarithm of the EC50 (pEC50) of 5.94.

With `Nc1nc(N[C@H]2CCC[C@@H](O)C2)c2c(F)cc(-c3cc[nH]n3)cc2n1` (racemic) [Example 16, cis-3-((2-amino-5-fluoro-7-(1H-pyrazol-3-yl)quinazolin-4-yl)amino)cyclohexan-1-ol], the negative-log EC50 (pEC50) is 6.11. `Nc1nc(N[C@H]2CCC[C@H](O)C2)c2c(F)cc(-c3cc[nH]n3)cc2n1` (racemic) [Example 17, trans-3-((2-amino-5-fluoro-7-(1H-pyrazol-3-yl)quinazolin-4-yl)amino)cyclohexan-1-ol] gave a negative logarithm of the EC50 (pEC50) of 6.02.

Consider `Nc1nc(N[C@@H]2COC[C@H]2O)c2ccc(-c3ccn[nH]3)cc2n1` (racemic) [Example 25, trans-4-((2-amino-7-(1H-pyrazol-5-yl)quinazolin-4-yl)amino)tetrahydrofuran-3-ol], for which the negative logarithm of the EC50 (pEC50) was 6.14. With `Nc1nc(N[C@H]2CCCC[C@H]2CO)c2ccc(-c3ccn[nH]3)cc2n1` (racemic) [Example 57] the figure was 6.10; with `Nc1nc(NC[C@@H]2CCCC[C@@H]2O)c2ccc(-c3ccn[nH]3)cc2n1` (racemic) [Example 77], 6.19; with `C[C@]1(O)CC[C@@H](Nc2nc(N)nc3cc(-c4ccn[nH]4)ccc23)C1` (racemic) [Example 107], 6.17. For `C[C@@]1(O)CC[C@@H](Nc2nc(N)nc3cc(-c4ccn[nH]4)ccc23)C1` (racemic) [Example 108], the pEC50 is 5.38. The figure for `Nc1nc(NC2C[C@@H](O)[C@H](O)C2)c2ccc(-c3ccn[nH]3)cc2n1` (racemic) [Example 109] is 5.71; for `Nc1nc(N[C@@H]2CC[C@@H](O)[C@@H]2O)c2ccc(-c3ccn[nH]3)cc2n1` (racemic) [Example 110] it is 6.19.

On to `Nc1nc(N[C@H]2C[C@@H](O)C[C@@H]2O)c2ccc(-c3cc[nH]n3)cc2n1` (racemic) [Example 117], for which the pEC50 is 5.81. The figure for `Nc1nc(N[C@H]2C[C@H](O)C[C@@H]2O)c2ccc(-c3cc[nH]n3)cc2n1` (racemic) [Example 118] is 6.01.

Molecule `CO[C@@H]1C[C@@H](Nc2nc(N)nc3cc(-c4ccn[nH]4)ccc23)C[C@H]1O` (racemic) [Example 141, rac-(1R,2R,4S)-4-((2-amino-7-(1H-pyrazol-5-yl)quinazolin-4-yl)amino)-2-methoxycyclopentan-1-ol] gave a pEC50 of 5.44. The figure for `Nc1nc(NCC2CCC(=O)N2)c2ccc(-c3ccn[nH]3)cc2n1` (single isomer, unassigned) [Example 5, 5-(((2-amino-7-(1H-pyrazol-5-yl)quinazolin-4-yl)amino)methyl)pyrrolidin-2-one] is 4.88. As for `Nc1nc(NCC2CCC(=O)N2)c2ccc(-c3ccn[nH]3)cc2n1` (single isomer, unassigned) [Example 6, 5-(((2-amino-7-(1H-pyrazol-5-yl)quinazolin-4-yl)amino)methyl)pyrrolidin-2-one], the pEC50 is 5.68. The molecule `CC(C)(O)C(O)CNc1nc(N)nc2cc(-c3ccn[nH]3)ccc12` (single isomer, unassigned) [Example 9, 1-((2-amino-7-(1H-pyrazol-5-yl)quinazolin-4-yl)amino)-3-methylbutane-2,3-diol] showed a pEC50 of 5.88. With `CC(C)(O)C(O)CNc1nc(N)nc2cc(-c3ccn[nH]3)ccc12` (single isomer, unassigned) [Example 10, 1-((2-amino-7-(1H-pyrazol-5-yl)quinazolin-4-yl)amino)-3-methylbutane-2,3-diol] the figure was 5.73. Consider `Nc1nc(N[C@H]2COC[C@@H](O)C2)c2ccc(-c3ccn[nH]3)cc2n1` (single isomer, unassigned) [Example 12], for which the pEC50 is 5.41. `Nc1nc(N[C@H]2COC[C@@H](O)C2)c2ccc(-c3ccn[nH]3)cc2n1` (single isomer, unassigned) [Example 13]: the negative-log EC50 (pEC50) was 5.93. The figure for `CCCC(CCO)Nc1nc(N)nc2cc(-c3ccn[nH]3)ccc12` (single isomer, unassigned) [Example 98, 3-((2-amino-7-(1H-pyrazol-5-yl)quinazolin-4-yl)amino)hexan-1-ol] is 6.07.

`CCCCC(CCO)Nc1nc(N)nc2cc(-c3ccn[nH]3)ccc12` (single isomer, unassigned) [Example 101, 3-((2-amino-7-(1H-pyrazol-5-yl)quinazolin-4-yl)amino)heptan-1-ol] gave a negative logarithm of the EC50 (pEC50) of 6.08. With `Cn1ccnc1C(O)CNc1nc(N)nc2cc(-c3ccn[nH]3)ccc12` (single isomer, unassigned) [Example 149, 2-((2-amino-7-(1H-pyrazol-5-yl)quinazolin-4-yl)amino)-1-(1-methyl-1H-imidazol-2-yl)ethan-1-ol] the figure was 5.35; with `Cn1ccnc1C(O)CNc1nc(N)nc2cc(-c3ccn[nH]3)ccc12` (single isomer, unassigned) [Example 150, 2-((2-amino-7-(1H-pyrazol-5-yl)quinazolin-4-yl)amino)-1-(1-methyl-1H-imidazol-2-yl)ethan-1-ol], 5.61. The figure for `Nc1nc(N[C@@H]2C[C@H]2c2cccnc2)c2ccc(-c3ccn[nH]3)cc2n1` (single isomer, unassigned) [Example 162, 7-(1H-pyrazol-5-yl)-N4-((trans)-2-(pyridin-3-yl)cyclopropyl)quinazoline-2,4-diamine] is 6.62. With `Nc1nc(N[C@@H]2C[C@H]2c2cccnc2)c2ccc(-c3ccn[nH]3)cc2n1` (single isomer, unassigned) [Example 163, 7-(1H-pyrazol-5-yl)-N4-((trans)-2-(pyridin-3-yl)cyclopropyl)quinazoline-2,4-diamine] the figure was 6.19; with `Nc1nc(N[C@H]2CCC[C@@H](O)C2)c2ccc(-c3ccn[nH]3)cc2n1` (single isomer, unassigned) [Example 178, (cis)-3-((2-amino-7-(1H-pyrazol-5-yl)quinazolin-4-yl)amino)cyclohexan-1-ol], 6.18; with `Nc1nc(N[C@H]2CCC[C@@H](O)C2)c2ccc(-c3ccn[nH]3)cc2n1` (single isomer, unassigned) [Example 179, (cis)-3-((2-amino-7-(1H-pyrazol-5-yl)quinazolin-4-yl)amino)cyclohexan-1-ol], 6.57. As to `N#C[C@H]1CC[C@H](Nc2nc(N)nc3cc(-c4ccn[nH]4)ccc23)C1` (single isomer, unassigned) [Example 185, (trans)-3-((2-amino-7-(1H-pyrazol-5-yl)quinazolin-4-yl)amino)cyclopentane-1-carbonitrile], the negative logarithm of the EC50 (pEC50) is 6.77.

As for `Nc1nc(NCC2CC2(F)F)c2ccc(-c3cc[nH]n3)cc2n1` (single isomer, unassigned) [Example 198, N4-((2,2-Difluorocyclopropyl)methyl)-7-(1H-pyrazol-3-yl)quinazoline-2,4-diamine], the negative-log EC50 (pEC50) was 7.15.

The pEC50 is −log10 of the EC50, conventionally taken in molar units. A low value points to a high EC50.
